Assay results: patent US9452997B2, “Piperidine and piperazine derivatives as autotaxin inhibitors” (Merck Patent GmbH, priority 2009, dated 2016)

Biological target: T1, Recombinant autotaxin (Homo sapiens, UniProt Q13822)
T1 construct: made in house; host or cells: Hi5 insect cells (baculovirus)
Assay: Autotaxin assay (Amplex Red, LPC substrate)
Format: biochemical
Conditions: recombinant autotaxin, LPC substrate, Amplex Red detection; values given as upper bounds
Outline: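 Recombinant autotaxin (Hi5 baculovirus, 16 ng) pre-incubated with compound 30 min at 22° C, then reacted with 75 μM egg LPC for 90 min at 37° C. Choline released is coupled to H2O2 and Amplex Red fluorescence (ex 485/em 612 nm). IC50 from ten 1:3 dilutions from 30 μM, duplicates, normalised to 500 μM C14 LPA.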

SMILES	IC50 [µM]
O=C(Nc1ccc2[nH]nnc2c1)c1ccc(N2CCN(C(=O)OCc3ccc(C(F)(F)F)cc3)CC2)nc1 [Compound 111, 4-[5-(1H-Benzotriazol-5-ylcarbamoyl)-pyridin-2-yl]-piperazine-1-carboxylic acid 4-trifluoromethyl-benzyl ester]	< 10
Nc1n[nH]c2ccc(C(=O)N3CCN(C4CCN(C(=O)OCc5ccc(C(F)(F)F)cc5)CC4)CC3)cc12 [Compound 112, 4-[4-(3-Amino-1H-indazole-5-carbonyl)-piperazin-1-yl]-piperidine-1-carboxylic acid 4-trifluoromethyl-benzyl ester]	< 10
O=C(OCc1ccc(C(F)(F)F)c(F)c1F)N1CCC(N2CCN(C(=O)c3ccc4[nH]nnc4c3)CC2)CC1 [Compound 113, 4-[1-(1H-Benzotriazole-5-carbonyl)-piperidin-4-yl]-piperazine-1-carboxylic acid 2,3-dilfuoro-4-trifluoromethyl-benzyl ester]	< 1
O=C(OCc1c(F)c(F)c(C(F)(F)F)c(F)c1F)N1CCN(C2CCN(C(=O)c3ccc4[nH]nnc4c3)CC2)CC1 [Compound 114, 4-[1-(1H-Benzotriazole-5-carbonyl)-piperidin-4-yl]-piperazine-1-carboxylic acid 2,3,5,6-tetrafluoro-4-trifluoromethyl-benzyl ester]	< 1
O=C(OCc1cccc(C(F)(F)F)c1)N1CCN(C2CCN(C(=O)c3ccc4[nH]nnc4c3)CC2)CC1 [Compound 115, 4-[1-(1H-Benzotriazole-5-carbonyl)-piperidin-4-yl]-piperaizne-1-carboxylic acid 3-trifluoromethyl-benzyl ester]	< 1
O=C(OCc1cc(F)c(F)c(Cl)c1)N1CCN(C2CCN(C(=O)c3ccc4[nH]nnc4c3)CC2)CC1 [Compound 116, 4-[1-(1H-Benzotriazole-5-carbonyl)-piperidin-4-yl]-piperazine-1-carboxylic acid 3-chloro-4,5-difluoro-benzyl ester]	< 1
O=C(OCc1ccc(Cl)c(F)c1)N1CCN(C2CCN(C(=O)c3ccc4[nH]nnc4c3)CC2)CC1 [Compound 117, 4-[1-(1H-Benzotriazole-5-carbonyl)-piperidin-4-yl]-piperazine-1-carboxylic acid 4-chloro-3-fluoro-benzyl ester]	< 1
O=C(OCc1ccc(OC(F)(F)F)c(F)c1)N1CCN(C2CCN(C(=O)c3ccc4[nH]nnc4c3)CC2)CC1 [Compound 118, 4-[1-(1H-Benzotriazole-5-carbonyl)-piperidin-4-yl]-piperazine-1-carboxylic acid 3-fluoro-4-trifluoromethoxy-benzyl ester]	< 1
Cc1ccc(COC(=O)N2CCN(C3CCN(C(=O)c4ccc5[nH]nnc5c4)CC3)CC2)cc1C(F)(F)F [Compound 119, 4-[1-(1H-Benzotriazole-5-carbonyl)-piperidin-4-yl]-piperazine-1-carboxylic acid 4-methyl-3-trifluoromethyl-benzyl ester]	< 10
COc1c(C)cc(COC(=O)N2CCN(C3CCN(C(=O)c4ccc5[nH]nnc5c4)CC3)CC2)cc1C [Compound 120, 4-[1-(1H-Benzotriazole-5-carbonyl)-piperidin-4-yl]-piperazine-1-carboxylic acid 4-methoxy-3,5-dimethyl-benzyl ester]	< 10
COc1cc(COC(=O)N2CCN(C3CCN(C(=O)c4ccc5[nH]nnc5c4)CC3)CC2)cc(OC)c1OC [Compound 121, 4-[1-(1H-Benzotriazole-5-carbonyl)-piperidin-4-yl]-piperazine-1-carboxylic acid 3,4,5-trimethoxy-benzyl ester]	< 30
O=C(NCc1ccc(SC(F)(F)F)cc1)N1CCN(C2CCN(C(=O)c3ccc4[nH]nnc4c3)CC2)CC1 [Compound 122, 4-[1-(1H-Benzotriazole-5-carbonyl)-piperidin-4-yl]-piperazine-1-carboxylic acid 4-trifluoromethylsulfanyl-benzylamide]	< 10
O=C(Cc1ccc(Cl)cc1)C(=O)N1CCN(C2CCN(C(=O)c3ccc4[nH]nnc4c3)CC2)CC1 [Compound 123, 1-{4-[1-(1H-Benzotriazole-5-carbonyl)-piperidin-4-yl]-piperazin-1-yl}-3-(4-chloro-phenyl)-propane-1,2-dione]	< 10
O=C(c1ccc2[nH]nnc2c1)N1CCC(N2CCN(C(=O)c3ccccc3-c3ccc(C(F)(F)F)cc3)CC2)CC1 [Compound 124, (1H-Benzotriazol-5-yl)-{4-[4-(4′-trifluoromethyl-biphenyl-2-carbonyl)-piperazin-1-yl]-piperidin-1-yl}-methanone]	< 10
O=C(c1ccc2[nH]nnc2c1)N1CCC(N2CCN(C(=O)c3ccccc3-c3cccc(C(F)(F)F)c3)CC2)CC1 [Compound 125, (1H-Benzotriazol-5-yl)-{4-[4-(3′-trifluoromethyl-biphenyl-2-carbonyl)-piperazin-1-yl]-piperidin-1-yl}-methanone]	< 10
O=C(OCc1ccc(C(F)(F)F)cc1)N1CCN(C2CCN(C(=O)c3ccc4[nH]c(=O)sc4c3)CC2)CC1 [Compound 126, 4-[1-(2-Oxo-2,3-dihydro-benzothiazole-6-carbonyl)-piperidin-4-yl]-piperazine-1-carboxylic acid 4-trifluoromethyl-benzyl ester]	< 10
O=C(Cc1ccc2[nH]nnc2c1)N1CCC(N2CCN(C(=O)Cc3ccc(C(F)(F)F)cc3)CC2)CC1 [Compound 138, 2-(1H-Benzotriazol-5-yl)-1-(4-{4-[2-(4-trifluoromethyl-phenyl)-acetyl]-piperazin-1-yl}-piperidin-1-yl)-ethanone]	< 10

Further lines, results first:

IC50 [µM]	SMILES
< 10	O=C(OCc1ccc(C(F)(F)F)cc1)N1CCN(C2CCN(C(=O)c3ccc4[nH]c(=S)[nH]c4c3)CC2)CC1 [Compound 127, 4-[1-(2-Thioxo-2,3-dihydro-1H-benzoimidazole-5-carbonyl)-piperidin-4-yl]-piperazine-1-carboxylic acid 4-trifluoromethyl-benzyl ester]
< 1	O=C(OCc1cccc(OC(F)(F)F)c1)N1CCN(C2CCN(C(=O)c3ccc4[nH]nnc4c3)CC2)CC1 [Compound 128, 4-[1-(1H-Benzotriazole-5-carbonyl)-piperidin-4-yl]-piperazine-1-carboxylic acid 3-trifluoromethoxy-benzyl ester]
< 10	O=C(CCc1cc(F)c(F)c(Cl)c1)N1CCN(C2CCN(C(=O)c3ccc4[nH]nnc4c3)CC2)CC1 [Compound 129, 1-{4-[1-(1H-Benzotriazole-5-carbonyl)-piperidin-4-yl]-piperazin-1-yl}-3-(3-chloro-4,5-difluoro-phenyl)-propan-1-one]
< 10	Cc1c(Br)cc(CCC(=O)N2CCN(C3CCN(C(=O)c4ccc5[nH]nnc5c4)CC3)CC2)cc1Br [Compound 130, 1-{4-[1-(1H-Benzotriazole-5-carbonyl)-piperidin-4-yl]-piperazin-1-yl}-3-(3,5-dibromo-4-methyl-phenyl)-propan-1-one]
< 30	O=C(OCc1cn(-c2ccc(Cl)cc2)nn1)N1CCN(C2CCN(C(=O)c3ccc4[nH]nnc4c3)CC2)CC1 [Compound 131, 4-[1-(1H-Benzotriazole-5-carbonyl)-piperidin-4-yl]-piperazine-1-carboxylic acid 1-(4-chloro-phenyl)-1H-[1,2,3]triazol-4-ylmethyl ester]
< 10	CC(OC(=O)N1CCN(C2CCN(C(=O)c3ccc4[nH]nnc4c3)CC2)CC1)c1ccc(C(F)(F)F)cc1 (stereo not drawn) [Compound 132, 4-[1-(1H-Benzotriazole-5-carbonyl)-piperidin-4-yl]-piperazine-1-carboxylic acid 1-(4-trifluoromethyl-phenyl)-ethyl ester]
< 10	O=C(CCc1cc(Cl)c(F)c(Cl)c1)N1CCC(N2CCN(C(=O)c3ccc4[nH]nnc4c3)CC2)CC1 [Compound 133, 1-{4-[4-(1H-Benzotriazole-5-carbonyl)-piperazin-1-yl]-piperidin-1-yl}-3-(3,5-dichloro-4-fluoro-phenyl)-propan-1-one]
< 30	Cn1nc2ccccc2c1COC(=O)N1CCN(C2CCN(C(=O)c3ccc4[nH]nnc4c3)CC2)CC1 [Compound 134, 4-[1-(1H-Benzotriazole-5-carbonyl)-piperidin-4-yl]-piperazine-1-carboxylic acid 2-methyl-2H-indazol-3-ylmethyl ester]
< 1	O=C(OCc1cc(-c2ccsc2)cs1)N1CCN(C2CCN(C(=O)c3ccc4[nH]nnc4c3)CC2)CC1 [Compound 135, 4-[1-(1H-Benzotriazole-5-carbonyl)-piperidin-4-yl]-piperazine-1-carboxylic acid [3,3′]bithiophenyl-5-ylmethyl ester]
< 10	O=C(OCc1ccc2c(c1)OCO2)N1CCN(C2CCN(C(=O)c3ccc4[nH]nnc4c3)CC2)CC1 [Compound 136, 4-[1-(1H-Benzotriazole-5-carbonyl)-piperidin-4-yl]-piperazine-1-carboxylic acid benzo[1,3]dioxol-5-ylmethyl ester]
< 10	O=C(OCc1ccc2c(c1)OCCO2)N1CCN(C2CCN(C(=O)c3ccc4[nH]nnc4c3)CC2)CC1 [Compound 137, 4-[1-(1H-Benzotriazole-5-carbonyl)-piperidin-4-yl]-piperazine-1-carboxylic acid 2,3-dihydro-benzo[1,4]dioxin-6-ylmethyl ester]
< 1	O=C(Cc1ccc2[nH]nnc2c1)N1CCC(N2CCN(C(=O)OCc3cc(C(F)(F)F)cc(C(F)(F)F)c3)CC2)CC1 [Compound 139, 4-[1-(2-1H-Benzotriazol-5-yl-acetyl)-piperidin-4-yl]-piperazine-1-carboxylic acid 3,5-bis-trifluoromethyl-benzyl ester]
< 10	O=C(Cc1ccc2[nH]nnc2c1)N1CCC(N2CCN(C(=O)Nc3cc(Cl)cc(Cl)c3)CC2)CC1 [Compound 140, 4-[1-(2-1H-Benzotriazol-5-yl-acetyl)-piperidin-4-yl]-piperazine-1-carboxylic acid (3,5-dichloro-phenyl)-amide]
